From patent US7732178B2, “Laccase enzymes and their uses” (AB Enzymes Oy, priority 2004, dated 2010)
Several values for one entry are separate records, joined by “and”; a condition that tells them apart may be missing. Identical values can stand only once. Like-named read-outs stand apart in the source and are kept apart here.

Legend:
[1] = system: Chaetomium thermophilum ALKO4265 laccase, purified wild type (CtL; CtLcc1); format: biochemical; settings: pH 5
[2] = target: T1, Chaetomium thermophilum ALKO4265 laccase CtLcc1, recombinant, SEQ ID NO: 47 (Thermochaetoides thermophila, UniProt G0S3A5); format: biochemical
T1 construct: plasmid pALK1304 (DSM 15075)
T1 sequence (G0S3A5 entry or part of it): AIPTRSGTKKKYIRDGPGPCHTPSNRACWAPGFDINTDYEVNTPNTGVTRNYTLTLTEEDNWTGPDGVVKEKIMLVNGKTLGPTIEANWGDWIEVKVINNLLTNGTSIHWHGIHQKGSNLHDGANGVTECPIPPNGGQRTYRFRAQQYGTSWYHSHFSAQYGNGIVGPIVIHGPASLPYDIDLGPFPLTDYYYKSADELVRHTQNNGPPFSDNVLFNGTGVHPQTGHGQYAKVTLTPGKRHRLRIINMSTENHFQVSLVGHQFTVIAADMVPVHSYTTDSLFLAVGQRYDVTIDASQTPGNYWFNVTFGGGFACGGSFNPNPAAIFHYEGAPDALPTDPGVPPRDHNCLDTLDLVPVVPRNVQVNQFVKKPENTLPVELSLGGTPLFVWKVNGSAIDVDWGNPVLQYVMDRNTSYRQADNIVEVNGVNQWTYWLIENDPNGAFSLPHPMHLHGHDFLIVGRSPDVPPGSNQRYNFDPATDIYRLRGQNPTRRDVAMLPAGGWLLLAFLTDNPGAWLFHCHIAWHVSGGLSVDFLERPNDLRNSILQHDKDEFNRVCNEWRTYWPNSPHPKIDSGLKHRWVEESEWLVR
Protocol: (§1) The inhibition effect of different compounds on the activity of the laccases was determined as described in Example 2. except with Talcc4, with which the inhibition was analyzed using spectroscopic activity assay.

[3] = target: T2, Thielavia arenaria ALKO4197 laccase TaLcc2, recombinant, SEQ ID NO: 41 (Canariomyces notabilis, UniProt A0AAN6TC87); format: biochemical
T2 construct: plasmid pALK1347 (DSM 15486)
T2 sequence (A0AAN6TC87 entry or part of it): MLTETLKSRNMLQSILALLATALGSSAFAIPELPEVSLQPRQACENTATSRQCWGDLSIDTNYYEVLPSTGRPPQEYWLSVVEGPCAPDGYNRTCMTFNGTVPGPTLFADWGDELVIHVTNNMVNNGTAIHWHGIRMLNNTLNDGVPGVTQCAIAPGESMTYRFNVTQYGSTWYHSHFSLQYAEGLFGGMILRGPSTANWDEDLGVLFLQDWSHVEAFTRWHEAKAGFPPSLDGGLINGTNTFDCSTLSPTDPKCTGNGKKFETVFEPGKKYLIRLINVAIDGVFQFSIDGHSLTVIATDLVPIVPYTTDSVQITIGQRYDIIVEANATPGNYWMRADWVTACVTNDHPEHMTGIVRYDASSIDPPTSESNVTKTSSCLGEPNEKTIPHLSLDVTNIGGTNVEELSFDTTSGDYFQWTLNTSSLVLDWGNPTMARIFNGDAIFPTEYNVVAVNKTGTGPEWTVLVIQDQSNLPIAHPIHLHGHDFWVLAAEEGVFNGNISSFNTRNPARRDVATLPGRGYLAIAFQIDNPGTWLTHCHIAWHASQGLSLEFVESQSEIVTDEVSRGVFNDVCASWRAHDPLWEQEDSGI
Protocol: as §1

[4] = system: Thielavia arenaria ALKO4197 laccase TaLcc4, recombinant, SEQ ID NO: 45; format: biochemical
Protocol: as §1

[5] = system: wild type Chaetomium (CtL) laccase; format: biochemical, Chaetomium thermophilum; settings: pH 5
[6] = system: CtLcc1; format: biochemical, Chaetomium thermophilum
Protocol: as §1

[7] = system: TaLcc1; format: biochemical, Thielavia arenaria
Protocol: as §1

[8] = system: TaLcc2; format: biochemical, Thielavia arenaria
Protocol: as §1

[9] = system: TaLcc4; format: biochemical, Thielavia arenaria; settings: inhibitor 0.5 mM; spectrofotometric ABTS assay
[10] = target: T3, Thielavia arenaria ALKO4197 laccase TaLcc1, recombinant, SEQ ID NO: 39 (Canariomyces arenarius, UniProt F6N9E7); format: biochemical
T3 construct: plasmid pALK1342 (DSM 15484)
Protocol: (§2) On syringaldazin and DMP 40 mM MES buffer, pH 6 was used. All activity assays were carried out at 25° C. Kinetic parameters were estimated by a nonlinear regression curve fit. The values were compared to those of Melanocarpus albomyces MaL, laccase.

[11] = system: Thielavia arenaria ALKO4197 laccase TaLcc3, recombinant, SEQ ID NO: 43; experiment: Kinetic parameters of TaLcc3; format: biochemical
Protocol: as §2

[12] = system: Thielavia arenaria ALKO4197 laccase TaLcc4, recombinant, SEQ ID NO: 45; experiment: Kinetic parameters of TaLcc4; format: biochemical
Protocol: as §2

[13] = target: T4, Melanocarpus albomyces laccase (MaL) (Melanocarpus albomyces, UniProt Q70KY3); experiment: Kinetic parameters of MaL; format: biochemical
T4 sequence (Q70KY3 51-609): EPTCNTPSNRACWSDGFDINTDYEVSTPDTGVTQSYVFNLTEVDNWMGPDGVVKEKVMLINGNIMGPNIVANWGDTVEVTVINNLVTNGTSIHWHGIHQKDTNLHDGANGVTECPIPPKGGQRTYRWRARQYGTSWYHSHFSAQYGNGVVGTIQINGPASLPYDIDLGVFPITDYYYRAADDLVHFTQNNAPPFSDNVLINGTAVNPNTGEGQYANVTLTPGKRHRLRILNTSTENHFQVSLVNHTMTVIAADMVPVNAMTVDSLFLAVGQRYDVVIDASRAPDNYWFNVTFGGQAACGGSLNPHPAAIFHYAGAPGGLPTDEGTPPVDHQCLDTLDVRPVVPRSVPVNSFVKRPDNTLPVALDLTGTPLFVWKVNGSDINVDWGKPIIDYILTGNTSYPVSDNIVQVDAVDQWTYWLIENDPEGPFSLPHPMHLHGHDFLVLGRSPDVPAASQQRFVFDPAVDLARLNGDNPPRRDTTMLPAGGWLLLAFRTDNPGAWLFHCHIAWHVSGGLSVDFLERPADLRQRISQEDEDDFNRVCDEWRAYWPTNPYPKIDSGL
Protocol: as §2

[14] = system: wild type Thielavia (TaLcc) laccase; format: biochemical, Thielavia arenaria; settings: pH 5
[15] = target: Thielavia arenaria ALKO4197 laccase, purified wild type (TaLcc; TaLcc1) (Canariomyces arenarius, UniProt F6N9E7); experiment: biochemical; settings: pH 5
[16] = target: T3, Thielavia arenaria ALKO4197 laccase TaLcc1, recombinant, SEQ ID NO: 39; experiment: biochemical
Protocol: as §1

[17] = Specific activity towards ABTS; format: biochemical; settings: 25 mM succinate buffer pH 4.5, 25° C.
Protocol: The activity assay was carried out in accordance with the method developed by Niku-Paavola et al. (1988). The sample was diluted with 0.025 M succinate buffer, pH 4.5. […] The activity is expressed as nano katals.
(§3) Specific activities of the purified T. arenaria and C. thermophilum laccases were determined towards different laccase substrates.

[18] = Specific activity towards di-methoxy-phenol (DMP); format: biochemical; settings: 25 mM MES buffer, pH 5.5
Protocol: as §3

[19] = Specific activity towards syringaldazine; format: biochemical; settings: 25 mM MES buffer, pH 5.5
Protocol: as §3

[20] = Specific activity towards guaiacol; format: biochemical; settings: 25 mM MES buffer, pH 5.5
Protocol: as §3

[21] = Isoelectric focusing (pI); format: physicochemical; settings: pH range 3-9
Protocol: Molecular weight of the T. arenaria and C. thermophilum laccases were determined on SDS-PAGE according to Laemmli (1970) The gels used in the SDS-PAGE analysis were ready-made 12% Tris HCl gels (BioRad). Protein bands were visualized by staining with Coomassie Brilliant Blue (R 350; Pharmacia) and compared with molecular weight markers (Prestained Protein Marker Broad Range #7708S; New England BioLabs, Beverly, Mass.). The molecular weight of the both laccases was approximately 80 kDa. The isoelectric point of the laccases was determined with isoelectric focusing within the pH range of 3-9 (Pharmalyte IEF, Pharmacia) on a LKB 2117 Multiphor II Electrophoresis System (LKB Pharmacia, Bromma, Sweden) according to the manufacturer's instructions.
(§4) The purified recombinant Thielavia and Chaetomium laccases were characterized in terms of pH optimum, thermal stability, and pI as described in Example 2. The molecular weight was determined by MALDI-TOF mass spectrometry on a Ultraflex™ time-of-flight instrument (BrukerDaltonics, Germany) as previously described (Palonen et al., 2003). The redox-potentials of the T1 coppers of for CtLcc, and TaLcc2 laccases were determined by photometric copper titration in 0.1 M KH2PO4 (pH 6.0) as described by Xu et al. (1996) using the redox titrant couple K3Fe(CN)6/K4Fe(CN)6. The redox potential of TaLcc1 was determined with a combined Pt—AgCl/KCl microelectrode at pH 5.0 according to Sigoillot et al (2004). The characterization results are collected to Table 14.

[22] = Redox potential, combined Pt-AgCl/KCl microelectrode; format: physicochemical; settings: combined Pt-AgCl/KCl microelectrode at pH 5.0
Protocol: as §4

[23] = Stain removal, grass soiling; set-up: key to Grass L* / Grass a* / Grass b*: CIE L*a*b* color coordinates from reflectance; settings: 60 min, 40° C., pH 6; enzyme 20 nkat/g + mediator 2 mg/g (Mediator only: 0 nkat/g)
Protocol: (§5) Laccases CtLcc1, TaLcc2, TaLcc4 and Denilite II Base (Example 7) were tested for their ability to remove stains. The following artificially soiled test cloths were used: grass soiling (Art.164, EMPA Testmaterialen, Germany), tea soiling (Art. 167, EMPA Testmaterialen, Germany). The fabric was cut in 5.8×5.8 cm swatches. Laccase treatments were performed in LP-2 Launder Ometer as follows. About 5 g of soiled fabrics were loaded into 1.2 liter containers containing 150 ml Mc Ilvaine's citrate phosphate buffer pH 6 and the containers were temperated. Enzyme with or without the mediator (methyl syringate, DeniLite II Assist, Novozymes) was added as laccase activity units (Example 7). Enzyme was dosed 200 nkat/g and the mediator 10 mg/g on the weight of fabric, except at 40° C. dosages of 20 nkat/g and 2 mg/g were also used. The Launder Ometer was run at 40, 50 or 60° C. and pH 6 for 60 min. After that the swatches were carefully rinsed under running water and in shake flasks containing warm water and dried in the air.
(§6) The stain removal effect was evaluated by measuring the colour as reflectance values using L*a*b* color space coordinates (Example 7). The colour of the swatches was measured before and after the laccase treatment.

[24] = Stain removal, tea soiling; set-up: key to Tea L* / Tea a* / Tea b*: CIE L*a*b* color coordinates from reflectance; settings: 60 min, 40° C., pH 6; enzyme 20 nkat/g + mediator 2 mg/g (Mediator only: 0 nkat/g)
Protocol: as §5, §6

[25] = 25 mM succinate buffer pH 4.5, 25° C.

[N-]=[N+]=[N-].[Na+] [NaN3]
Inhibition (%) [1]: 100%
Inhibition (%) [2]: 100%
Inhibition (%) [3]: 95%
Inhibition (%) [4]: 95%
Inhibition (%) CtL [5]: 100%
Inhibition (%) CtLcc1 ([6]; inhibitor 0.5 mM): 100%
Inhibition (%) TaLcc1 ([7]; inhibitor 0.5 mM): 95%
Inhibition (%) TaLcc2 ([8]; inhibitor 0.5 mM): 95%
Inhibition (%) TaLcc4 [9]: 95%

COc1cc(C=NN=Cc2cc(OC)c(O)c(OC)c2)cc(OC)c1O [Syringaldazin, syringaldazin]
Km ([10]; 40 mM MES buffer, pH 6, 25° C.): 4.3 µM
kcat ([10]; 40 mM MES buffer, pH 6, 25° C.): 32.33 s⁻¹
Km ([11]; 40 mM MES buffer, pH 6, 25° C.): 4.3 µM
kcat ([11]; 40 mM MES buffer, pH 6, 25° C.): 0.2 s⁻¹
Km ([12]; 40 mM MES buffer, pH 6, 25° C.): 115 µM
kcat ([12]; 40 mM MES buffer, pH 6, 25° C.): 15.5 s⁻¹
kcat ([13]; 40 mM MES buffer, pH 6, 25° C.): 78.5 s⁻¹

COc1cccc(OC)c1O [DMP, 2,6-dimethoxy phenol]
Km ([10]; 40 mM MES buffer, pH 6, 25° C.): 17 µM
kcat ([10]; 40 mM MES buffer, pH 6, 25° C.): 67.17 s⁻¹
Km ([11]; 40 mM MES buffer, pH 6, 25° C.): 14 µM
kcat ([11]; 40 mM MES buffer, pH 6, 25° C.): 0.083 s⁻¹
Km ([12]; 40 mM MES buffer, pH 6, 25° C.): 1900 µM
kcat ([12]; 40 mM MES buffer, pH 6, 25° C.): 26.5 s⁻¹
kcat ([13]; 40 mM MES buffer, pH 6, 25° C.): 69.33 s⁻¹

CCn1c(=NN=c2sc3cc(S(=O)(=O)O)ccc3n2CC)sc2cc(S(=O)(=O)O)ccc21 [ABTS, 2,2′azinobis-3-ethylbenzthiazole-6-sulphonate]
Km ([10]; pH 4.5): 75 µM
kcat ([10]; pH 4.5): 68.83 s⁻¹
Km [11, 25]: 1040 µM
kcat [11, 25]: 0.617 s⁻¹
Km [12, 25]: 2470 µM
kcat [12, 25]: 143.5 s⁻¹
kcat ([13]; pH 4.5): 78.17 s⁻¹

[Cl-].[Na+] [NaCl]
Inhibition (%) TaLcc [14]: 35% and 42%
Inhibition (%) CtL [5]: 0% and 10%
Inhibition (%) CtLcc1 [6]: 0% and 10%
Inhibition (%) TaLcc1 [7]: 0%
Inhibition (%) TaLcc2 [8]: 20% and 30%

O=C(O)CN(CCN(CC(=O)O)CC(=O)O)CC(=O)O [EDTA]
inhibition at 10000 µM [15]: 0%
Inhibition (%) [1]: 0%
Inhibition (%) [4]: 2%
inhibition at 10000 µM [16]: 5%

B1: TaLcc1: Thielavia arenaria ALKO 4197 laccase, SEQ ID NO: 39, produced in Trichoderma reesei (protein)
chain: MKSWAAAVALMVGILSPHAAAAPPANPVQRDMLQVLEARQSGPTCNTPSNRACWTNGFDINTDYEVSTPNTGRTVAYQLTLTEKENWIGPDGVLKNVVMLVNDKIIGPTIRANWGDNIEVTVINNLKTNGTSMHWHGLRQLGNVFNDGANGVTECPIPPKGGRKTYKFRATQYGTSWYHSHFSAQYGNGVVGTIQIDGPASLPYDIDLGVFPLMDYYYRSADELVHFTQSNGAPPSDNVLFNGTARHPETGAGQWYNVTLTPGKRHRLRIINTSTDNHFQVSLVGHNMTVIATDMVPVNAFTVSSLFLAVGQRYDVTIDANSPVGNYWFNVTFGDGLCGSSNNKFPAAIFRYQGAPATLPTDQGLPVPNHMCLDNLNLTPVVTRSAPVNNFVKRPSNTLGVTLDIGGTPLFVWKVNGSAINVDWGKPILDYVMSGNTSYPVSDNIVQVDAVDQWTYWLIENDPTNPIVSLPHPMHLHGHDFLVLGRSPDELPSAGVRHIFDPAKDLPRLKGNNPVRRDVTMLPAGGWLLLAFKTDNPGAWLFHCHIAWHVSGGLSVDFLERPNDLRTQLNSNAKRADRDDFNRVCREWNAYWPTNPFPKIDSGLRHRFVEESEWMVR
modifications: Thielavia arenaria ALKO4197; (1)..(617) Deduced amino acid sequence of Thielavia arenaria ALKO4197 TaLcc1
Specific activity on ABTS [17]: 910 nkat/mg
Specific activity on DMP [18]: 285 nkat/mg
Specific activity on syringaldazin [19]: 340 nkat/mg
Specific activity on guaiacol [20]: 61 nkat/mg
pI [21]: 5.5-6.9
E^0 [22]: 560 mV
Grass L* [23]: 80.16
Grass a* [23]: −0.73
Grass b* [23]: 16.20
Tea L* [24]: 77.17
Tea a* [24]: 4.65
Tea b* [24]: 24.40
